Laboratory results from patent publication US20240408093A1, “HETEROBIFUNCTIONAL COMPOUNDS AND THEIR USE IN TREATING DISEASE” (HALDA THERAPEUTICS OPCO, INC., priority 2022, published 2024).
Read-outs that look alike come from different tables or passages of the source.

Tests used:
BTK = target: T1, BTK (Homo sapiens, UniProt Q06187); assay: Release of effector protein ligand from heterobifunctional compounds, BTK; type: biochemical
T1 construct: BTK (amino acids 387-659)
Method: Exemplary heterobifunctional compounds were evaluated for the ability to release an effector protein ligand in the presence of KRAS G12C, BTK, or EGFR T790M L858R target proteins.
Samples for mass spectrometry for KRAS G12C, BTK, and EGFR T790M L858R were prepared as described above for the intact mass spectrometry target engagement experiment, respectively, except rather than flash-freezing, 20 μL of sample was quenched with 50 μL of 100% acetonitrile. As well, a buffer-only control was used to detect latent release of effector protein ligand analyte. Internal standard (IS) solution consisted of 200 ng/mL propranolol and 50 ng/mL diclofenac in methanol:water 1:1 (v/v). A 4-point calibration curve (calibration standard (CS)) consisting of each analyte was made at final concentrations of 3 nM, 30 nM, 300 nM, and 3000 nM. Unknown samples were diluted such that the unknown analyte concentration was in the linear range of the calibration curve.
Samples for all proteins were prepared and analyzed from the following:
Samples were further analyzed with AB Sciex Triple Quad 5500 system coupled with Shimadzu Prominence HPLC.

HeLa cells (ATCC CCL-2) = assay: Cellular growth inhibition assay, HeLa cells (Example 16); type: cell-based; conditions: Homo sapiens, 72 hours, CellTiter-Glo 2.0
Method: (§1) Exemplary compounds were tested for ability to inhibit the proliferation of HEK293 cells (ATCC CRL-1573) and HeLa cells (ATCC CCL-2).
(§2) HEK293 and HeLa cells were cultured in DMEM (Gibco 11995), supplemented with 10% Heat-inactivated FBS (Gibco A38400-01) and 1% Penicillin/Streptomycin (Gibco 15140-122) at 37° C. with 5% CO2 in a humidified tissue culture incubator. Cells were seeded at 500 cells/well in 384-well, Poly-D-lysine-treated blackplates (Perkin Elmer 6007710) in 25 μL media lacking selection for 18-24 hours. Plates were spun at 300 g for 30 seconds and stored in the incubator overnight. After 24 hours, a 25 μL aliquot of compound-containing medium was added in each well, at a final top concentration of 10 μM test compound, with 3-fold dilutions, using DMSO alone as a negative control. Plates were then spun at 300×g for 3 minutes again and cultured at 37° C. with 5% CO2. After 72 hours, cell viability was quantified with CellTiter-Glo 2.0 (Promega). After equilibrating cell plates at room temperature for 30 minutes, 25 μL CellTiter-Glo 2.0 reagent was dispensed into each well. Plates were mixed on a shaker for 2 minutes at 500 rpm, followed by a 10-minute incubation at room temperature. Luminescence readings were measured with an EnVision Plate Reader (Perkin Elmer). Data was normalized to DMSO treated cell wells. A four-parameter non-linear regression curve fit was applied to dose-response data in Prism to determine the half maximal growth inhibitory concentration (GI50) of each compound.

[1] = test system: HEK293 cells (ATCC CRL-1573); assay: Cellular growth inhibition assay, HEK293 cells (Example 16); type: cell-based; conditions: Homo sapiens, 72 hours, CellTiter-Glo 2.0
Method: as §1, §2

KRAS G12C = KRAS G12C (Homo sapiens, UniProt P01116, G12C); assay: KRAS G12C nucleotide exchange assay (SOS1-mediated, HTRF); type: biochemical; design: GST-tagged KRAS G12C (amino acids 2-169); conditions: 1 hr pre-incubation
Method: KRAS target engagement (IC50 determination) was performed using a KRAS G12C nucleotide exchange assay. Specifically, compounds were tested against KRAS G12C in 10-point concentration IC50 mode with 3-fold serial dilution at a starting concentration of 10 μM. ARS1620 was used as a control.
Briefly, GST-tagged KRAS G12C (amino acids 2-169) was mixed with anti-GST Tb antibody (1.5× solution) and 10 μL was delivered to reaction wells. Compounds were delivered using an acoustic dispenser (Echo, Labcyte) and pre-incubated with protein for 1 hr at RT. KRAS/anti-GST Tb Ab/compound mixture was incubated for 1 hour at room temperature. A 3× solution of SOS1 (amino acids 564-1049) and GTP-DY-647P1 (GTP*) was prepared in reaction buffer. A 5 μL aliquot of SOS1/GTP* solution was added to reaction wells to initiate the exchange reaction. No-SOS1 reaction or max compound concentration was used as blank. The final concentrations of KRAS G12C, SOS1, and GTP* were 30 nM, 20 nM, and 0.15 μM, respectively. SOS1 mediated exchange of GDP to GTP-DY-647P was measured using HTRF (Ex/Em=(320-75/665-7.5; 615-8.5)) using an Envision Plate Reader (Perkin Elmer). IC50 determination was performed using a Sigmoidal dose response (variable slope) equation.

GSPT1 [2] = target: T2, GSPT1 (Homo sapiens, UniProt P15170+Q96SW2); assay: GSPT1 HiBiT degradation assay; type: cell-based; conditions: HEK293 LgBiT GSPT1 HiBiT cells, 6 hours
T2 construct: host or cells: HEK293 LgBiT / GSPT1 HiBiT CRISPR knock-in
Description: Promega developed a HEK293 cell line that constitutively expresses LgBiT protein and GSPT1_HiBiT fusion protein. When both proteins are present, the HiBiT portion of the fusion protein combines with LgBiT protein to form a functional luciferase enzyme. Endurazine, a cell permeable small molecule, is converted by cellular esterases into furimazine, which the luciferase enzyme uses as a substrate to generate luminescence. When GSPT1 is degraded, the HiBit is also degraded. This prevents formation of fully functional luciferase, leading to a loss in luminescence. GSPT1 degradation therefore correlates with a decrease in luminescence and can be measured continuously over time. The concentration of compound at which 50% GSPT1 degradation occurs (DC50) may be calculated using this system.
HEK293 LgBiTGSPT1 HiBiT CRISPR Knock-in cells were cultured in DMEM Media supplemented with 10% Heat-inactivated FBS, 1% Penicillin/Streptomycin, 200 μg/mL hygromycin and stored in a humidified incubator set at 37° C. and 5% CO2. 18-24 hours prior to compound treatment, cells were seeded at 1000 cells/well in a 384-well tissue culture-treated white plates in 25 μL media lacking selection for 18-24 hours. The plates were spun at 300 g for 30 seconds and stored in the incubator overnight. After 24 hours, compounds are titrated in DMSO and added to media supplemented with endurazine substrate. A 25 μL aliquot of 2× compound/endurazine in media is then added to the 384-well microplate with seeded cells. (Endurazine is used at a final concentration of 0.5×). The plate was spun at 300 g for 30 seconds and stored in the incubator. After 6 hours, the plate was read on a Perkin Elmer MultiMode Plate Reader Envision 2105 to measure luminescence signal. Data were plotted in Prism (Graphpad) and the concentration of compound at which 50% GSPT1 degradation occurs (DC50) was calculated.

GSPT1 [3] = assay: Payload release assay (DC50 readout), GSPT1 degradation in the presence of recombinant target protein; type: cell-based; conditions: I-series compounds (GSPT1 readout inferred)
Method: Exemplary compounds were tested for ability to cause degradation of CCNK or GSPT1 in the presence of recombinant target protein.
HEK293 LgBiT/GSPT1 HiBiT CRISPR Knock-in cells (Promega) were cultured in DMEM (Gibco 11995), supplemented with 10% Heat-inactivated FBS (Gibco A38400-01) and 1% Penicillin/Streptomycin (Gibco 15140-122) and 200 Vg/ml Hygromycin B (Gibco 10-687-010) at 37° C. with 5% CO2 in a humidified tissue culture incubator. HEK293 LgBiT/CCNK HiBiT cells (in-house, described above) were cultured in DMEM (Gibco 11995), supplemented with 10% Heat-inactivated FBS (Gibco A38400-01) and 1% Penicillin/Streptomycin (Gibco 15140-122) 200 Vg/ml Hygromycin B (Gibco 10-687-010), and 1 Vg/ml Puromycin Dihydrochloride (Thermo A1113803) at 37° C. with 5% CO2 in a humidified tissue culture incubator. Cells were seeded (1000 cells/well for HEK293 LgBiT/GSPT1 HiBiT cells or 3000 cells/well for HEK293 LgBiT/CCNK HiBiT cells) 384-well, tissue culture-treated white plates (Perkin Elmer 6007680) in 10 μL media lacking selection for 18-24 hours. Plates were spun at 300 g for 30 seconds and stored in the incubator overnight. After 24 hours, a 5 μL aliquot of recombinant target protein (final concentration of either 5 μM KRAS amino acids 1-169, C51S, C80L, C118S, G12C or 3 μM EGFR amino acids 696-1022 or 3 μM EGFR amino acids 696-1022, T790M, L858R) was added to wells, followed immediately by a 5 μL aliquot of 4× compound-containing medium supplemented with Endurazine Substrate (Promega N2570) was added in each well, at a final top concentration of 10 μM test compound and 0.5× Endurazine, with 4-fold dilutions, using DMSO alone as a negative control. Plates were then spun at 300×g for 3 minutes again and cultured at 37° C. with 5% CO2. After 6 hours the plate was read on Envision MultiMode Plate Reader 2105 (Perkin Elmer) to measure luminescence signal. Data was normalized to DMSO treated cell wells. A four-parameter non-linear regression curve fit was applied to dose-response data in Prism to determine the half maximal growth inhibitory concentration (GI50) of each compound.

[4] = 0 μM recombinant KRAS G12C, read-out: DC50 at 0 μM KRAS G12C
[5] = 5 μM recombinant KRAS G12C, read-out: DC50 at 5 μM KRAS G12C

T1 sequence (Q06187 387-659): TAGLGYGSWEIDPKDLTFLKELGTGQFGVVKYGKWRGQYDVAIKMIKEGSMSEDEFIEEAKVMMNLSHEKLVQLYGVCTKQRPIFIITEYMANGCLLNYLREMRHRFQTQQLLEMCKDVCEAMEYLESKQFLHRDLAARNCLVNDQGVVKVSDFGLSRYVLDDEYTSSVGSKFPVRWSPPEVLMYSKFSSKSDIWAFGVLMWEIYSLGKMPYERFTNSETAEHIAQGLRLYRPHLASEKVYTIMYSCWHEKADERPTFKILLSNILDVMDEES
T2 sequence (P15170 whole entry): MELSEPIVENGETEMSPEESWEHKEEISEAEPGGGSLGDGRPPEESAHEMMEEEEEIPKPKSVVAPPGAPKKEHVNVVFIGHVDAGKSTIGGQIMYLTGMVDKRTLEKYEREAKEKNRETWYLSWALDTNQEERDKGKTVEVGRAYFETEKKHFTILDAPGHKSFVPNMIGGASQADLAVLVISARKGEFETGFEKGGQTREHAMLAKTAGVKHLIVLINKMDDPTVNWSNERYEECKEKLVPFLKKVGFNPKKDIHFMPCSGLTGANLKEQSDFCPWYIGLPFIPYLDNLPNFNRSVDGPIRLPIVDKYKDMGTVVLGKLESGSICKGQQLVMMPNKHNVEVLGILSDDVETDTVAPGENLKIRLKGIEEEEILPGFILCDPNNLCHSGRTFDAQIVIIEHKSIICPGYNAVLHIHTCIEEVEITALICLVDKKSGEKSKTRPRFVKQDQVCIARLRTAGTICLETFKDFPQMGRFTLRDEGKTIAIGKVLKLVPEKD
T2 sequence (Q96SW2 whole entry): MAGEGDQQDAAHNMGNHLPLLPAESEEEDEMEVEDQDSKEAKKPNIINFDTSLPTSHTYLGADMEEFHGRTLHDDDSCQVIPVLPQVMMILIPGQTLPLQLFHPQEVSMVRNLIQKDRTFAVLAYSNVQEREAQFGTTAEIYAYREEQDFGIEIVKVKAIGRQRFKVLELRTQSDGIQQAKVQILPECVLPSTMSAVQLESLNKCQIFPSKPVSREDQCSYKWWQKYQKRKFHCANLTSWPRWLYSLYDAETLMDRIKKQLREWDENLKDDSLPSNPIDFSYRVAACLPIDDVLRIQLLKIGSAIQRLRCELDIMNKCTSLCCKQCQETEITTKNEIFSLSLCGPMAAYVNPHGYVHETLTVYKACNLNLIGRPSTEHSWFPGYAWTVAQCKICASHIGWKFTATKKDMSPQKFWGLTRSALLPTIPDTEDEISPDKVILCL
T2 sequence (Q16531 whole entry partner): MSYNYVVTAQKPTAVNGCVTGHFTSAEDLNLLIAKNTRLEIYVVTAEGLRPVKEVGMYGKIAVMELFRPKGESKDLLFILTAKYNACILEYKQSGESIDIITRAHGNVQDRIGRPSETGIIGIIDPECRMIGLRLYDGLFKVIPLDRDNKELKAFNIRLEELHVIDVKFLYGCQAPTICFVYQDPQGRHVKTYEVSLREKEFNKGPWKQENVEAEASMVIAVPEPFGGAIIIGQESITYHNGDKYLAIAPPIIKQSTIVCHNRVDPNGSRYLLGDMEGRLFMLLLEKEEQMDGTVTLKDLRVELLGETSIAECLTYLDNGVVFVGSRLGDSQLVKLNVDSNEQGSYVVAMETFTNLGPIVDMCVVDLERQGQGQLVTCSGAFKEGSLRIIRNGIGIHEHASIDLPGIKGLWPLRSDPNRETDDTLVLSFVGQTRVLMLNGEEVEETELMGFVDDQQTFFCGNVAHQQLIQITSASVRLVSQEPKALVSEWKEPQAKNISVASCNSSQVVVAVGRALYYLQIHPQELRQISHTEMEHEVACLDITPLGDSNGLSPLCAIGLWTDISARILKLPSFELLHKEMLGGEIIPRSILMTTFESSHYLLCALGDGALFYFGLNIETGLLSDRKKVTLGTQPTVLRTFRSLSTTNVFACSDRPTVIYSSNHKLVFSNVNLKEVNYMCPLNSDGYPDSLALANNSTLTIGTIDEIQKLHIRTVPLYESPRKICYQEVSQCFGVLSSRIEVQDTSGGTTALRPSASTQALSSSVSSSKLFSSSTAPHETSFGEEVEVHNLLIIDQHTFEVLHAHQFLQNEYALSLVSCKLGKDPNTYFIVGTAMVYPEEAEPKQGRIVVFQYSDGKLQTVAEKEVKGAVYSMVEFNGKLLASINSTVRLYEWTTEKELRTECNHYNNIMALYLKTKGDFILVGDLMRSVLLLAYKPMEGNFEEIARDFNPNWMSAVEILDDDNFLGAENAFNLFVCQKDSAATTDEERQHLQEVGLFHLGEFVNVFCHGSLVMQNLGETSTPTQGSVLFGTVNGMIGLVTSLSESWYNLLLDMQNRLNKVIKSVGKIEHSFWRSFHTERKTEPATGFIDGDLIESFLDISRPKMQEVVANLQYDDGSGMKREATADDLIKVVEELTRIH
Chain of KRAS G12C (P01116 2-169 isoform P01116-2 G12C): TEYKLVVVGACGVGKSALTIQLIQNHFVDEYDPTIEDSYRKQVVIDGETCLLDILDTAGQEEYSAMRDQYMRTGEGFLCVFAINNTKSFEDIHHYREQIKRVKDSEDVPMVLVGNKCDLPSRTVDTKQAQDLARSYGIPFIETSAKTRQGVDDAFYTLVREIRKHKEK

Compound	GI50 [1] [nM]	IC50 (KRAS G12C) [µM]	DC50 (GSPT1 [2]) [nM]	DC50 (GSPT1 [3]; [4]) [µM]	DC50 (GSPT1 [3]; [5]) [µM]	also measured
C=C(Cn1cc(CNc2cc(N3CCCC[C@H]3CCO)nc3c(CC)cnn23)ccc1=O)C(=O)N(C)CCOc1c(N)ncnc1-c1cc(F)cc(NC(=O)c2ccc(C3CC3)cc2F)c1C [Compound A1-5]						Concentration of Effector Protein Ligand (BTK; Matrix Buffer + Protein (BTK), Time 0 h, detected A1-3): 51.8 nM; Concentration of Effector Protein Ligand (BTK; Matrix Buffer + Protein (BTK), Time 1 h, detected A1-3): 72.3 nM; Concentration of Effector Protein Ligand (BTK; Matrix Buffer + Protein (BTK), Time 4 h, detected A1-3): 118 nM; Concentration of Effector Protein Ligand (BTK; Matrix Buffer + Protein (BTK), Time 22 h, detected A1-3): 164 nM; Concentration of Effector Protein Ligand (BTK; Matrix Buffer, Time 0 h, detected A1-3): 44.9 nM; Concentration of Effector Protein Ligand (BTK; Matrix Buffer, Time 1 h, detected A1-3): 49 nM; Concentration of Effector Protein Ligand (BTK; Matrix Buffer, Time 4 h, detected A1-3): 52.4 nM; Concentration of Effector Protein Ligand (BTK; Matrix Buffer, Time 22 h, detected A1-3): 80.5 nM
C=C(COc1ccc2nc3c(c(CC)c2c1)Cn1c-3cc2c(c1=O)COC(=O)[C@]2(O)CC)C(=O)N1CCC[C@@H](n2nc(-c3ccc(Oc4ccccc4)cc3)c3c(N)ncnc32)C1 [Compound A1-6]						Concentration of Effector Protein Ligand (BTK; Matrix Buffer + Protein (BTK), Time 0 h, detected A1-7): 790 nM; Concentration of Effector Protein Ligand (BTK; Matrix Buffer + Protein (BTK), Time 1 h, detected A1-7): 797 nM; Concentration of Effector Protein Ligand (BTK; Matrix Buffer + Protein (BTK), Time 4 h, detected A1-7): 641 nM; Concentration of Effector Protein Ligand (BTK; Matrix Buffer + Protein (BTK), Time 22 h, detected A1-7): 770 nM; Concentration of Effector Protein Ligand (BTK; Matrix Buffer, Time 0 h, detected A1-7): 104 nM; Concentration of Effector Protein Ligand (BTK; Matrix Buffer, Time 1 h, detected A1-7): 92.6 nM; Concentration of Effector Protein Ligand (BTK; Matrix Buffer, Time 4 h, detected A1-7): 66.4 nM; Concentration of Effector Protein Ligand (BTK; Matrix Buffer, Time 22 h, detected A1-7): 86.4 nM
C=C(COc1cc(Cl)cc(NC(=O)NCc2ccc3c(c2)CN(C2CCC(=O)NC2=O)C3=O)c1)C(=O)N1CCN(c2ncnc3c(F)c(-c4c(O)cccc4F)c(Cl)cc23)CC1 (centres unmarked) [Compound I-43]	< 500	> 10	50 to 500			GI50 (HeLa cells (ATCC CCL-2)): 500 to 1500 nM
C=C(COc1cc(Cl)cc(NC(=O)NCc2ccc3c(c2)CN(C2CCC(=O)NC2=O)C3=O)c1)C(=O)N1CC(n2c(=O)c3cc(-c4cc(O)cc5ccccc45)ccc3n2C)C1 (centres unmarked) [Compound I-57]	< 500	> 10	50 to 500	< 0.25	< 0.25	GI50 (HeLa cells (ATCC CCL-2)): 1500 to 10000 nM
C=C(COc1cc(C(F)(F)C(=O)NCc2ccc3c(c2)CN(C2CCC(=O)NC2=O)C3=O)ccc1Cl)C(=O)N1CCN(c2nc(OC[C@@H]3CCCN3C)nc3c2CCN(c2cccc4cccc(Cl)c24)C3)C[C@@H]1CC#N (some centres unmarked) [Compound I-81]	1500 to 10000	< 0.1	50 to 500	0.25 to 5	> 10	
C=C(COc1cc([N+](=O)[O-])c(Cl)cc1NC(=O)NCc1ccc2c(c1)CN(C1CCC(=O)NC1=O)C2=O)C(=O)N1CCN(c2nc(OC[C@@H]3CCCN3C)nc3c2CCN(c2cccc4cccc(Cl)c24)C3)C[C@@H]1CC#N (some centres unmarked) [Compound I-82]	> 10000	0.1 to 5	> 2500	> 10	5 to 10	
C=C(CN1C(=O)CCC(N2Cc3cc(CNC(=O)Nc4cccc(Cl)c4O)ccc3C2=O)C1=O)C(=O)N1CCN(c2nc(OC[C@@H]3CCCN3C)nc3c2CCN(c2cccc4cccc(Cl)c24)C3)C[C@@H]1CC#N (some centres unmarked) [Compound I-83]	1500 to 10000	0.1 to 5	500 to 2500	0.25 to 5	> 10	
